Biological target: T1, PapG adhesin (isolated P pili) (Escherichia coli, UniProt P13720)
T1 construct: gene papGI; native PapG at the tip of isolated P pili (rod of PapA), sheared from E. coli HB101/pPAP5, ammonium sulfate precipitated; PapG not purified separately
Experiment: surface plasmon resonance (Biacore X100), isolated P pili over immobilised galabiose-BSA
Assay type: binding
Conditions: galabiose as BSA conjugate (about 30 per BSA) on CM3 chip, BSA reference subtracted; citrate-phosphate buffer pH 3.5-8.0, 25 °C; multivalent

T1 sequence (P13720 22-335): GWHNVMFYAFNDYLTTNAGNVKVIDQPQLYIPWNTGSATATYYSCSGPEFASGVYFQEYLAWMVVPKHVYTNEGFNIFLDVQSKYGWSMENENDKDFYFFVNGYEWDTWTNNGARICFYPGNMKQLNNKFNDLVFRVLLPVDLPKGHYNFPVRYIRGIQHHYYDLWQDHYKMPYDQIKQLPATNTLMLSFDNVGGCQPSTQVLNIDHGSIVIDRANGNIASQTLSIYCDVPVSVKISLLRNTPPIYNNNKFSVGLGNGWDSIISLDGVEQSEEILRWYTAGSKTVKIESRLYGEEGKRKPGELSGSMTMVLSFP

OC[C@H]1O[C@H](O[C@@H]2[C@H](O)[C@@H](O)C(O)O[C@@H]2CO)[C@H](O)[C@@H](O)[C@H]1O (stereo partly drawn) [galabiose, α-D-Gal-(1–4)-β-D-Gal]
surface plasmon resonance (Biacore X100), isolated P pili over immobilised galab: the binding stability of both isolated pili and bacteria to galabiose-coated surfaces was high
